{"source": "ChEMBL document CHEMBL1201862", "about": "“PubChem BioAssay data set” (2004)", "key": {"[1]": {"target": "T1, Protein skinhead-1 (Caenorhabditis elegans, UniProt P34707)", "T1 sequence (P34707 whole entry)": "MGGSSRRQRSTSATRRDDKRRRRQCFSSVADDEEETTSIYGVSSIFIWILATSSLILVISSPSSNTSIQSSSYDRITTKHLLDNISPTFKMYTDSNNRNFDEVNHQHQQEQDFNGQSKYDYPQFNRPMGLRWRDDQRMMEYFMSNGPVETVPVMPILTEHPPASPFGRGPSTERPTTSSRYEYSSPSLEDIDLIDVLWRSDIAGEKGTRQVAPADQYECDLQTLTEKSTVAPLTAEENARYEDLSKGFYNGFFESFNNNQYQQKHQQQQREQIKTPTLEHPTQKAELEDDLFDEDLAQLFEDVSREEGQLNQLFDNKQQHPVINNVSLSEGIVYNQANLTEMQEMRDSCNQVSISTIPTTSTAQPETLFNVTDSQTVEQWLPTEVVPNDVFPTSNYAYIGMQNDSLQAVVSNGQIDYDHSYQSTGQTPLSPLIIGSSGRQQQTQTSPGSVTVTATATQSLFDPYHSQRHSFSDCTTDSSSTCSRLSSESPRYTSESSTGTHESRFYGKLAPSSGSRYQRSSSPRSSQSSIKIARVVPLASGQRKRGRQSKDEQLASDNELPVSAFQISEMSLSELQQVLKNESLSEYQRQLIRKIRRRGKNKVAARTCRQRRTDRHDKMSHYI", "type": "functional"}, "[2]": {"target": "Cytochrome P450 2C9 (Homo sapiens, UniProt P11712)", "sequence (P11712 whole entry)": "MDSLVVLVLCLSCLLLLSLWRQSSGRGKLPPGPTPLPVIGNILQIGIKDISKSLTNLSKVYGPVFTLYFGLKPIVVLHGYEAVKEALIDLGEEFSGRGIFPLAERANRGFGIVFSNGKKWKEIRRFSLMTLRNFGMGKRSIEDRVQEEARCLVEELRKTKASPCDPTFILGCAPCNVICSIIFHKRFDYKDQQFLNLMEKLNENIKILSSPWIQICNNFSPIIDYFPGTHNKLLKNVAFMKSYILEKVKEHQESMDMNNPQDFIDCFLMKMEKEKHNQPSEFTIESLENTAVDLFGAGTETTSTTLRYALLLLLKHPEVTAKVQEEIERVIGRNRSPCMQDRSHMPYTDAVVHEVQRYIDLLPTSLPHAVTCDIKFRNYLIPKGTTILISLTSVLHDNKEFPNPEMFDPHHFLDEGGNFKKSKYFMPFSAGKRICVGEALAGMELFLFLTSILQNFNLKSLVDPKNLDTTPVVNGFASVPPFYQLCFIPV"}, "[3]": {"assay": "cytotoxicity toward NIH3T3 fibroblasts, dose response, counter-screen, cell-based, ATP luminescence, mouse fibroblasts (AID 2010);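 note: cells exposed to compound for about 90 hours before reading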", "type": "functional"}, "[4]": {"assay": "inhibitors of intracellular T. cruzi replication, confirmation, NIH3T3 host cells, beta-gal luminescence (AID 2044);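 note: luminescent beta-galactosidase reporter signal from transgenic T. cruzi replicating inside host cells; inhibitors lower the luminescence signal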", "type": "functional, cell-based"}, "[5]": {"target": "T2, Cytochrome P450 1A2 (Homo sapiens, UniProt P05177)", "T2 sequence (P05177 whole entry)": "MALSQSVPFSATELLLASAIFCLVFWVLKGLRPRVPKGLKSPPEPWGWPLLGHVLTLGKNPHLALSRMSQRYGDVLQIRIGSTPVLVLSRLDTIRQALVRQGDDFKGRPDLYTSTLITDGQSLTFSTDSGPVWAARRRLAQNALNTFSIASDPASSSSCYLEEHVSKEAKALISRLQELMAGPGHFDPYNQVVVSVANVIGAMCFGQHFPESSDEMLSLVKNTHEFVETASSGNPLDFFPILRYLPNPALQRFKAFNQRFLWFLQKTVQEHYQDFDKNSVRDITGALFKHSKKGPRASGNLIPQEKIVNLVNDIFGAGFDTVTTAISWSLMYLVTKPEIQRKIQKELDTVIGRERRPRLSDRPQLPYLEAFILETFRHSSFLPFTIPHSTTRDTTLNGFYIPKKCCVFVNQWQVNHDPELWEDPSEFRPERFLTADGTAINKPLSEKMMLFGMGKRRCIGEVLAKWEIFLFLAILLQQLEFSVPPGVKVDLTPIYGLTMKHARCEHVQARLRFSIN"}, "[6]": {"target": "Cytochrome P450 2D6 (Homo sapiens, UniProt P10635)", "sequence (P10635 whole entry)": "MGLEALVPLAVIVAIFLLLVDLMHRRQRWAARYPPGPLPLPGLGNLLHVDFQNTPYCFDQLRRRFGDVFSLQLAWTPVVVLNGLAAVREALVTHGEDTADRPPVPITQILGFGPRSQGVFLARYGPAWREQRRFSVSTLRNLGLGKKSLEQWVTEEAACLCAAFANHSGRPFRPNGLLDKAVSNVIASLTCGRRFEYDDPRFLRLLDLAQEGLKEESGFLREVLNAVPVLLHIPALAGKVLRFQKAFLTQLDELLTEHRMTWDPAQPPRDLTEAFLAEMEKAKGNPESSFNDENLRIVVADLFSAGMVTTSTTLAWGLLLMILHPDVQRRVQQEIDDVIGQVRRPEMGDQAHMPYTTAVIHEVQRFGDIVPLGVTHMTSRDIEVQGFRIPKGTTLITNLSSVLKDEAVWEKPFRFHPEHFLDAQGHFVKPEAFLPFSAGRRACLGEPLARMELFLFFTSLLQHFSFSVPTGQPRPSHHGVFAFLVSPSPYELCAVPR"}, "[7]": {"target": "Genome polyprotein (dengue virus type 2, UniProt P29990)", "sequence (P29990 2492-3391 limits assumed)": "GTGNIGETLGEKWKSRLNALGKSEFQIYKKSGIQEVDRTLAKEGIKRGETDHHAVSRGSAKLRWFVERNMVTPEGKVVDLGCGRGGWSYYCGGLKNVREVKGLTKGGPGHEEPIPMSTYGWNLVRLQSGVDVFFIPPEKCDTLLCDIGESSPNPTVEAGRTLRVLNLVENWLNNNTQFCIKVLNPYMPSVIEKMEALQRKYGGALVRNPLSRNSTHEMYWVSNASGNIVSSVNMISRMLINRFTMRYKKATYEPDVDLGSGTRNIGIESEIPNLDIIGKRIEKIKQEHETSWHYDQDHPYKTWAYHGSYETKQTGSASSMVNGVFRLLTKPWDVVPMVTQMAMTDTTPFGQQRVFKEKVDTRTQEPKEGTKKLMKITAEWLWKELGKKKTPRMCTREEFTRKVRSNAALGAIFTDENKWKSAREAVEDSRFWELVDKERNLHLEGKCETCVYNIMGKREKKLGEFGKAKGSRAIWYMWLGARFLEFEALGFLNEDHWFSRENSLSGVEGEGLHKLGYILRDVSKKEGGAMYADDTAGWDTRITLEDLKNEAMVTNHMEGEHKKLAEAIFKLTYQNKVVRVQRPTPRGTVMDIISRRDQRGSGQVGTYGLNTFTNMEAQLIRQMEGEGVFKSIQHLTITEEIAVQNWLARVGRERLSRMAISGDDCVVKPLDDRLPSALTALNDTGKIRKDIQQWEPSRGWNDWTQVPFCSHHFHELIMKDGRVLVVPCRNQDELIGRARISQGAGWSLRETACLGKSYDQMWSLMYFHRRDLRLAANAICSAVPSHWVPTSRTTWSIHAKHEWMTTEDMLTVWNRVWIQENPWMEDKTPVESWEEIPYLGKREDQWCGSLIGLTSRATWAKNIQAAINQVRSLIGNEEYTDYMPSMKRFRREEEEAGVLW", "assay": "Dengue-2 NS5 methyltransferase inhibitors, primary screen, biochemical, confirmation dose response (AID 588689)", "type": "functional"}, "[8]": {"target": "Cytochrome P450 2C19 (Homo sapiens, UniProt P33261)", "sequence (P33261 whole entry)": "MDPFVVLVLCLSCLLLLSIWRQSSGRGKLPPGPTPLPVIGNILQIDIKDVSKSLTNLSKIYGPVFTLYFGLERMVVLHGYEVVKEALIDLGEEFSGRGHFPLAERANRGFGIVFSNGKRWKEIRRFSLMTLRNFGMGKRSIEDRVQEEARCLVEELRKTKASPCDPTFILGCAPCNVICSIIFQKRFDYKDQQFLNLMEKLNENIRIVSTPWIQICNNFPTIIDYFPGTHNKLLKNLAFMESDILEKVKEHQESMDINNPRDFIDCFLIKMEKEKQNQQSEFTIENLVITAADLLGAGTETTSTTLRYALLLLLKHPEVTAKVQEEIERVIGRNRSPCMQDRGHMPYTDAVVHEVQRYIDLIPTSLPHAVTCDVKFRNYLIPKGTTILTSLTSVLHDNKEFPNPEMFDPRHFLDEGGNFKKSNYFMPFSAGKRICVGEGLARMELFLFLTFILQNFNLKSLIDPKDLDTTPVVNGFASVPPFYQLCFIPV", "assay": "Cytochrome panel assay with activity outcomes. Panel member name: p450-cyp2c19 Compounds with AC50 equal or less than 10 uM are considered active", "type": "functional", "conditions": "read-out: AC50"}, "[9]": {"target": "Cytochrome P450 3A4 (Homo sapiens, UniProt P08684)"}, "[10]": {"target": "T3, Fatty acid synthase (Homo sapiens, UniProt P49327)", "T3 sequence (P49327 whole entry, the tested form may be a part)": "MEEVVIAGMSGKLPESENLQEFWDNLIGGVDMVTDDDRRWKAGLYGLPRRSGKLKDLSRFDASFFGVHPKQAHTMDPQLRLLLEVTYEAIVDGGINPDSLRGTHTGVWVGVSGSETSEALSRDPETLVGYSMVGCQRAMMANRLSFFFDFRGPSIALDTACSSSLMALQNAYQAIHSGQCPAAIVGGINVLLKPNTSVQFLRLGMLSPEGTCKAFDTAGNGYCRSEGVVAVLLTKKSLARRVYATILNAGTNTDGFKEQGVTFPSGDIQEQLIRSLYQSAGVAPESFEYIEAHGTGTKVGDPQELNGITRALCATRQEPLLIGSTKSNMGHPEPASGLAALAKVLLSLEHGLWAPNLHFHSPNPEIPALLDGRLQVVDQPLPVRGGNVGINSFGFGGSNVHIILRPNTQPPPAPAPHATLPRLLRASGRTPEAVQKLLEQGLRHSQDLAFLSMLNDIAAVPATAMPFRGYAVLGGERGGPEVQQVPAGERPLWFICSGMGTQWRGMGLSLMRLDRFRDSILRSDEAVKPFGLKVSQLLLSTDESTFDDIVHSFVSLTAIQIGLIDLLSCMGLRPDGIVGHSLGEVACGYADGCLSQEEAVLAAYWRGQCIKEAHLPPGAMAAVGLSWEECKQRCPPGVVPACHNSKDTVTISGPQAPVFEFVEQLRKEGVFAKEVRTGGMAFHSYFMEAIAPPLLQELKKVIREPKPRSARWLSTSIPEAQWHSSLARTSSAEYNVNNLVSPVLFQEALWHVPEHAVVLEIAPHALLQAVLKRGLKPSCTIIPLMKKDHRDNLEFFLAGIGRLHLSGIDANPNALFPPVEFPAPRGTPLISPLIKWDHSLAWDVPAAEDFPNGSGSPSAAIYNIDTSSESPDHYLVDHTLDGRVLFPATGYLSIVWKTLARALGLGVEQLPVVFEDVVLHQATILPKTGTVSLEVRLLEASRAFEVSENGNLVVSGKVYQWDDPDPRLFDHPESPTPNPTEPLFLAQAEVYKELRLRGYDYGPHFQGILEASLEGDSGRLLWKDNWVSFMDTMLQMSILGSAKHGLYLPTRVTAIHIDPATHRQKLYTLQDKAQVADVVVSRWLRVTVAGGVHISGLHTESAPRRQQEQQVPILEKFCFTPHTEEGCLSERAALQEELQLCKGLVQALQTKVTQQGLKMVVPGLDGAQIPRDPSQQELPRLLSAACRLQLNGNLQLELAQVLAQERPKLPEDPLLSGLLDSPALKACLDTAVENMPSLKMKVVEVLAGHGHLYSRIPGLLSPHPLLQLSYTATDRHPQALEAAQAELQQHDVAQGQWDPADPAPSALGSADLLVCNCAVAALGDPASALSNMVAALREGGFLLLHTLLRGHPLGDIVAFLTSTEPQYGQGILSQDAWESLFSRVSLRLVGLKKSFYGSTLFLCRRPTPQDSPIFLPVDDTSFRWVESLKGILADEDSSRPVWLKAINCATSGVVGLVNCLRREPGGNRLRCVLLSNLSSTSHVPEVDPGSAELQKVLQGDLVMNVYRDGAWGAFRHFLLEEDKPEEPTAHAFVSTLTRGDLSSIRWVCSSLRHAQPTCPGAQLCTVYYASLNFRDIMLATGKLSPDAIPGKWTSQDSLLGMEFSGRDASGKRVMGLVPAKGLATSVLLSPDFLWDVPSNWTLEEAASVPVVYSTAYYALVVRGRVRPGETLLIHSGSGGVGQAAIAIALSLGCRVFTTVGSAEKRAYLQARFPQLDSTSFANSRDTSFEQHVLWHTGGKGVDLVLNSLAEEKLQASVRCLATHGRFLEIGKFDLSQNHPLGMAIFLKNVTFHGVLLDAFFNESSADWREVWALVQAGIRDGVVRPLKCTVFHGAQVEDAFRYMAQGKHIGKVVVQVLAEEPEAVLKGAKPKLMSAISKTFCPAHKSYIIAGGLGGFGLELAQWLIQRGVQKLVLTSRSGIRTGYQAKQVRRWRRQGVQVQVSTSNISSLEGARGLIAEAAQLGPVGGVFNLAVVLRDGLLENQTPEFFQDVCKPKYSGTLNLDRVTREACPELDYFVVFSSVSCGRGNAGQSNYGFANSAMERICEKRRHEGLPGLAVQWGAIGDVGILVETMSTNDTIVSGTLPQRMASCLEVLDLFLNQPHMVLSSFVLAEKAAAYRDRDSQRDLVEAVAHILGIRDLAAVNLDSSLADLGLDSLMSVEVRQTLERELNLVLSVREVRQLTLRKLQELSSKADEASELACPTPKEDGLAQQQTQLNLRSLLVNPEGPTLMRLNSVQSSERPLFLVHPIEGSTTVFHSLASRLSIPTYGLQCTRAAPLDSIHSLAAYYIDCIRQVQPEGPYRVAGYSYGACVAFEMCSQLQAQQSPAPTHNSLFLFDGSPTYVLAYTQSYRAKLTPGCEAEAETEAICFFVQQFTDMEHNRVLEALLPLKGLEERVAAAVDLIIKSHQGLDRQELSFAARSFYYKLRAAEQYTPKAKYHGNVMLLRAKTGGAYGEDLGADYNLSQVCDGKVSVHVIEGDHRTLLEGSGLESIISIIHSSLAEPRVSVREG", "assay": "FAS thioesterase domain inhibitors, dose response, biochemical, endpoint fluorescence intensity, uHTS hits (AID 624327);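 note: fluorescence from hydrolysis of an O-methyl fluorescein acyl ester substrate by the enzyme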", "type": "functional"}, "[11]": {"target": "T3, Fatty acid synthase", "assay": "FAS thioesterase domain inhibitors, dose response, biochemical, kinetic fluorescence intensity (AID 624326);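 note: rate of fluorescence rise from hydrolysis of a fluorogenic O-methyl fluorescein ester substrate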", "type": "functional"}, "[12]": {"system": "BJ", "assay": "cells", "type": "functional, cell-based, Homo sapiens", "conditions": "bj"}}, "note": "The source made the active and inactive calls."}
{"smiles": "CCOC(=O)C(Oc1ccc2c(-c3ccc(OC)cc3)cc(=O)oc2c1C)c1ccccc1", "note": "(stereo unspecified)", "values": [{"measurement": "IC50", "setting": "[1]", "value": "> 100 µM (inactive)"}]}
{"smiles": "CC1=C(C(=O)Nc2ccccc2F)C(c2ccsc2)C2=C(O)CC(c3ccccc3)CC2=N1", "note": "(stereo unspecified)", "values": [{"measurement": "AC50", "setting": "[2]", "value": "inconclusive"}, {"measurement": "EC50", "setting": "[3]", "value": "8.96 µM (active)"}, {"measurement": "EC50", "setting": "[4]", "value": "3.32 µM (active)"}, {"measurement": "AC50", "setting": "[5]", "value": "11.2 µM (inconclusive)"}]}
{"smiles": "COc1ccccc1-c1nnc(-c2ccc(F)cc2)o1", "values": [{"measurement": "IC50", "setting": "[1]", "value": "90.4 µM (inactive)"}]}
{"smiles": "Cc1cc(N(CCCl)CCCl)ccc1C=Cc1ccncn1", "values": [{"measurement": "IC50", "setting": "[1]", "value": "> 100 µM (inactive)"}]}
{"smiles": "CCCSc1nc(C)cc(C)c1S(=O)(=O)c1ccccc1C", "values": [{"measurement": "AC50", "setting": "[2]", "value": "inconclusive"}, {"measurement": "AC50", "setting": "[5]", "value": "11.2 µM (inconclusive)"}, {"measurement": "AC50", "setting": "[6]", "value": "39.8 µM (inconclusive)"}]}
{"smiles": "Cc1ccc(-c2nc(-c3ccncc3)no2)cc1", "values": [{"measurement": "IC50", "setting": "[1]", "value": "13.9 µM (active)"}]}
{"smiles": "O=C1NC(=O)C(=Cc2ccccc2Oc2ccc(F)cc2)C(=O)N1", "values": [{"measurement": "IC50", "setting": "[7]", "value": "37.5 µM (active)"}]}
{"smiles": "CCOC(=O)c1ccc(CNC(=O)C2CCCCC2C(=O)OCC(F)(F)F)o1", "note": "(stereo unspecified)", "values": [{"measurement": "AC50", "setting": "[8]", "value": "39.8 µM (inconclusive)"}, {"measurement": "AC50", "setting": "[2]", "value": "inconclusive"}, {"measurement": "AC50", "setting": "[6]", "value": "25.1 µM (inconclusive)"}]}
{"smiles": "Cc1ccc(CNC(=O)CN2C(=O)COc3ccc(C)cc32)cc1", "values": [{"measurement": "AC50", "setting": "[2]", "value": "inconclusive"}, {"measurement": "AC50", "setting": "[6]", "value": "28.2 µM (inconclusive)"}]}
{"smiles": "CCCCn1nnnc1SCC(=O)c1cc(Cl)ccc1OC", "values": [{"measurement": "AC50", "setting": "[9]", "value": "14.1 µM (inconclusive)"}, {"measurement": "AC50", "setting": "[2]", "value": "inconclusive"}, {"measurement": "AC50", "setting": "[6]", "value": "22.4 µM (inconclusive)"}]}
{"smiles": "Cc1ccc(S(=O)(=O)N2C[C@H]3[C@H]4C(=O)N(c5ccccc5)C(=O)[C@H]4CC(=O)[C@H]3[C@@H]2c2cccc3ccccc23)cc1", "values": [{"measurement": "IC50", "setting": "[10]", "value": "21.6 µM (inactive)"}, {"measurement": "IC50", "setting": "[11]", "value": "15.6 µM (active)"}, {"measurement": "IC50", "setting": "[1]", "value": "> 100 µM (inactive)"}]}
{"smiles": "CC(=C\\c1ccccc1)/C=C1/SC(=S)N(C(C(=O)O)C(C)C)C1=O", "note": "(stereo unspecified)", "values": [{"measurement": "IC50", "setting": "[7]", "value": "34.1 µM (active)"}]}
{"smiles": "COc1cc2c(c(OC)c1OC)-c1ccc(=O)c(O)cc1C(NC(C)=O)CC2", "note": "(stereo unspecified)", "values": [{"measurement": "EC50", "setting": "[12]", "value": "0.126 µM (inconclusive)"}]}
{"smiles": "O=C(CS(=O)(=O)c1cccc(Cl)c1)Nc1ccccc1Cl", "values": [{"measurement": "AC50", "setting": "[2]", "value": "inconclusive"}, {"measurement": "AC50", "setting": "[5]", "value": "22.4 µM (inconclusive)"}, {"measurement": "AC50", "setting": "[6]", "value": "17.8 µM (inconclusive)"}]}
{"smiles": "COc1cccc(/C=N/n2c(=S)n(C)c3cc(C)c(C)cc32)c1OC", "values": [{"measurement": "AC50", "setting": "[2]", "value": "inconclusive"}]}
{"smiles": "Fc1ccc(CSc2nnc(-c3cccs3)o2)cc1", "values": [{"measurement": "IC50", "setting": "[1]", "value": "27.3 µM (active)"}]}
{"smiles": "COc1ccc(N2CCN(C(=O)c3cc4c(-c5cccc(OC)c5)nn(C)c4s3)CC2)cc1", "values": [{"measurement": "IC50", "setting": "[1]", "value": "> 100 µM (inactive)"}]}
